Test results published in patent publication US8940896B2, “Tetra-cyclic carboline derivatives useful in the inhibition of angiogenesis” (PTC Therapeutics, Inc., priority 2004, dated 2015).
pEC50: −log10 of the molar value.

Test system: VEGF
Assay: Hypoxia-inducible endogenous VEGF expression, VEGF ELISA assay
Format: cell-based
Settings: HeLa cells, hypoxic conditions (1% O2, 5% CO2), VEGF in conditioned media
Description: The ability of the compounds of the invention to modulate hypoxia-inducible endogenous VEGF expression may be analyzed as follows. VEGF protein levels may be monitored by an ELISA assay (R&D Systems). Briefly, HeLa cells may be cultured for 24-48 hours under hypoxic conditions (1% O2, 5% CO2, balanced with nitrogen) in the presence or absence of a compound of the invention. The conditioned media may then be assayed by ELISA, and the concentration of VEGF calculated from the standard ELISA curve of each assay.
A dose-response analysis may be performed using the ELISA assay and conditions described above. The conditions for the dose-response ELISA are analogous to those described above. A series of, e.g., seven different concentrations may be analyzed. In parallel, a dose-response cytotoxicity assay may be performed using CellTiter Glo (Promega) under the same conditions as the ELISA to ensure that the inhibition of VEGF expression was not due to the cytotoxicity. Dose-response curves may be plotted using percentage inhibition versus concentration of the compound, and EC50 and CC50 values may be generated for each compound with the maximal inhibition set as 100% and the minimal inhibition as 0%.

Structure (SMILES)	pEC50 (Homo sapiens, HeLa)	pEC50
CCOC(=O)CN1C(=O)C2Cc3c([nH]c4ccc(Br)cc34)C(c3ccc(OC)cc3)N2C1=S (stereo not shown) [Compound 137]	7.40 to 8.10	–
COc1ccc(C2c3[nH]c4ccc(Br)cc4c3CC3C(=O)N(c4ccc(F)cc4F)C(=S)N32)cc1 (stereo not shown) [Compound 172]	> 8.10	–
COC(=O)c1cccc(N2C(=O)C3Cc4c([nH]c5ccccc45)C(c4ccc(OC)cc4)N3C2=S)c1 (stereo not shown) [Compound 51]	< 6.00	–
O=C1C2Cc3c([nH]c4ccc(Br)cc34)C(C3CCCCC3)N2C(=S)N1C1CCCC1 (stereo not shown) [Compound 19]	7.40 to 8.10	–
Cc1ccccc1N1C(=O)C2Cc3c([nH]c4ccccc34)C(c3cccc(Cl)c3)N2C1=S (stereo not shown) [Compound 37]	< 6.00	–
COc1ccccc1C1c2[nH]c3ccccc3c2CC2C(=O)N(c3cccc(C)c3)C(=S)N21 (stereo not shown) [Compound 90]	< 6.00	–
COc1ccc(C2c3[nH]c4ccc(Br)cc4c3CC3C(=O)N(c4ccc(F)cc4)C(=S)N32)cc1 (stereo not shown) [Compound 168]	> 8.10	–
CCOC(=O)CC(C)N1C(=O)C2Cc3c([nH]c4ccc(Br)cc34)C(c3ccc(OC)cc3)N2C1=S (stereo not shown) [Compound 145]	> 8.10	–
COCCOc1ccc(C2c3[nH]c4ccc(Cl)cc4c3CC3C(=O)N(C4CCCCC4)C(=S)N32)cc1 (stereo not shown) [Compound 116]	> 8.10	–
CC(C)N1C(=O)C2Cc3c([nH]c4ccccc34)C(c3cccc(Cl)c3)N2C1=S (stereo not shown) [Compound 68]	< 6.00	–
COc1ccc(C2c3[nH]c4ccccc4c3CC3C(=O)N(c4ccccc4C(C)C)C(=S)N32)cc1 (stereo not shown) [Compound 74]	< 6.00	–
CN(C)CCCOc1ccc(C2c3[nH]c4ccc(Cl)cc4c3CC3C(=O)N(C4CCCCC4)C(=S)N32)cc1 (stereo not shown) [Compound 114]	6.70 to 7.40	–
COc1ccc(C2c3[nH]c4ccc(Br)cc4c3CC3C(=O)N(c4ccc(Cl)c(C(F)(F)F)c4)C(=S)N32)cc1 (stereo not shown) [Compound 173]	> 8.10	–
COCCOc1ccc([C@@H]2c3[nH]c4ccc(Br)cc4c3C[C@H]3C(=O)N(C4CCCCC4)C(=S)N23)cc1 [Compound 148]	6.00 to 6.70	–
CC(C)N1C(=O)C2Cc3c([nH]c4ccc(Cl)cc34)C(c3ccc(-n4ccnc4)cc3)N2C1=S (stereo not shown) [Compound 132]	6.70 to 7.40	–
COc1ccc(C2c3[nH]c4ccc(Br)cc4c3CC3C(=O)N(C4CCCC4)C(=S)N32)cc1 (stereo not shown) [Compound 21]	> 8.10	–
CN1C(=O)C2Cc3c([nH]c4ccccc34)C(c3ccc(F)cc3)N2C1=S (stereo not shown) [Compound 63]	< 6.00	–
CC(C)N1C(=O)C2Cc3c([nH]c4ccc(Br)cc34)C(c3ccc(N4CCN(C)CC4)cc3)N2C1=S (stereo not shown) [Compound 129]	7.40 to 8.10	–
COCCN(CCCOc1ccc(C2c3[nH]c4ccc(Br)cc4c3CC3C(=O)N(C(C)C)C(=S)N32)cc1)CCOC (stereo not shown) [Compound 156]	7.40 to 8.10	–
O=C1C2Cc3c([nH]c4ccccc34)C(C3CCCCC3)N2C(=S)N1C1CCCC1 (stereo not shown) [Compound 11]	6.00 to 6.70	–
COc1ccc(C2c3[nH]c4ccccc4c3CC3C(=O)N(C4CCCC4)C(=S)N32)cc1 (stereo not shown) [Compound 13]	6.70 to 7.40	–
COc1ccc(C2c3[nH]c4ccccc4c3CC3C(=O)N(C)C(=S)N32)c(OC)c1OC (stereo not shown) [Compound 73]	< 6.00	–
COc1ccccc1C1c2[nH]c3ccccc3c2CC2C(=O)N(C)C(=S)N21 (stereo not shown) [Compound 76]	< 6.00	–
COc1ccc(C2c3[nH]c4ccc(C)cc4c3CC3C(=O)N(C4CCCCC4)C(=S)N32)cc1 (stereo not shown) [Compound 23]	7.40 to 8.10	–

Structure (SMILES)	pEC50 (Homo sapiens, HeLa)	pEC50
CN1CCN(CCCOc2ccc(C3c4[nH]c5ccc(Br)cc5c4CC4C(=O)N(c5ccc(Cl)cc5)C(=S)N43)cc2)CC1 (stereo not shown) [Compound 198]	> 8.10	–
O=C1C2Cc3c([nH]c4ccc(Br)cc34)C(c3ccc4c(c3)OCO4)N2C(=S)N1C1CC1 (stereo not shown) [Compound 18]	> 8.10	–
O=C1C2Cc3c([nH]c4ccc(Br)cc34)C(c3ccc4c(c3)OCO4)N2C(=O)N1C1CCCCC1 (stereo not shown) [Compound 29]	7.40 to 8.10	–
CCN1C(=O)C2Cc3c([nH]c4ccccc34)C(c3cc(OC)c(OC)c(OC)c3)N2C1=S (stereo not shown) [Compound 64]	< 6.00	–
COc1ccc(C2c3[nH]c4ccc(Br)cc4c3CC3C(=O)N(c4cccnc4)C(=S)N32)cc1 (stereo not shown) [Compound 99]	> 8.10	–
COc1ccc(C2c3[nH]c4ccc(Br)cc4c3CC3C(=O)N(Cc4ccc(Cl)cc4)C(=S)N32)cc1 (stereo not shown) [Compound 201]	> 8.10	–
COc1ccc(C2c3[nH]c4ccc(Br)cc4c3CC3C(=O)N(c4ccc(C)cc4)C(=S)N32)cc1 (stereo not shown) [Compound 171]	> 8.10	–
COc1ccc(C2c3[nH]c4ccc(Br)cc4c3CC3C(=O)N(c4cccc(Cl)c4)C(=S)N32)cc1 (stereo not shown) [Compound 165]	> 8.10	–
COCCCN1C(=O)C2Cc3c([nH]c4ccc(Br)cc34)C(c3ccc(OCCN4CCOCC4)cc3)N2C1=S (stereo not shown) [Compound 105]	7.40 to 8.10	–
COC(=O)c1cccc(N2C(=O)C3Cc4c([nH]c5ccc(Br)cc45)C(c4ccc(OC)cc4)N3C2=S)c1 (stereo not shown) [Compound 140]	> 8.10	–
CN1C(=O)C2Cc3c([nH]c4ccc(Br)cc34)C(c3ccc(OCCN4CCOCC4)cc3)N2C1=S (stereo not shown) [Compound 100]	7.40 to 8.10	–
CC(C)N1C(=O)C2Cc3c([nH]c4ccc(Cl)cc34)C(c3ccc(-c4ccncc4)cc3)N2C1=S (stereo not shown) [Compound 134]	7.40 to 8.10	–
COc1ccc(C2c3[nH]c4ccc(Br)cc4c3CC3C(=O)N(c4ccccc4Cl)C(=S)N32)cc1 (stereo not shown) [Compound 164]	6.70 to 7.40	–
CC(=O)N1CCN(CCCOc2ccc(C3c4[nH]c5ccc(Br)cc5c4CC4C(=O)N(C(C)C)C(=S)N43)cc2)CC1 (stereo not shown) [Compound 152]	> 8.10	–
COc1cccc(C2c3[nH]c4ccccc4c3CC3C(=O)N(c4ccccc4)C(=S)N32)c1 (stereo not shown) [Compound 57]	< 6.00	–
CC(C)N1C(=O)C2Cc3c([nH]c4ccc(Cl)cc34)C(c3ccc(N4CCN(C)CC4)cc3)N2C1=O (stereo not shown) [Compound 124]	6.70 to 7.40	–
O=C1C2Cc3c([nH]c4ccc(Br)cc34)C(c3ccc4c(c3)OCO4)N2C(=S)N1C1CCCC1 (stereo not shown) [Compound 22]	> 8.10	–
CN1C(=O)C2Cc3c([nH]c4ccccc34)C(c3cccc(Cl)c3Cl)N2C1=S (stereo not shown) [Compound 75]	< 6.00	–
CC(C)N1C(=O)C2Cc3c([nH]c4ccc(Br)cc34)C(c3ccc(N4CCOCC4)cc3)N2C1=O (stereo not shown) [Compound 118]	6.70 to 7.40	–
O=C1C2Cc3c([nH]c4ccccc34)C(c3ccc4c(c3)OCO4)N2C(=S)N1C1CCCCC1 (stereo not shown) [Compound 3]	< 6.00	–
COc1ccc(C2c3[nH]c4ccc(Br)cc4c3CC3C(=O)N(C4CCCCC4)C(=S)N32)cc1 (stereo not shown) [Compound 185]	–	> 8.10
O=C1C2Cc3c([nH]c4ccc(Br)cc34)C(c3ccc(F)cc3)N2C(=S)N1C1CCCCC1 (stereo not shown) [Compound 10]	7.40 to 8.10	–
O=C1C2Cc3c([nH]c4ccc(Br)cc34)C(c3ccc(OCCN4CCOCC4)cc3)N2C(=S)N1C1CCCCC1 (stereo not shown) [Compound 115]	> 8.10	–

The next lines start with the values.

pEC50 (Homo sapiens, HeLa)	pEC50	Structure (SMILES)
> 8.10	–	O=C1C2Cc3c([nH]c4ccc(Br)cc34)C(c3ccc(OCCN4CCOCC4)cc3)N2C(=S)N1C1CCCC1 (stereo not shown) [Compound 104]
< 6.00	–	COc1ccccc1C1c2[nH]c3ccccc3c2CC2C(=O)N(C(C)C)C(=S)N21 (stereo not shown) [Compound 86]
> 8.10	–	COc1ccc(C2c3[nH]c4ccc(Br)cc4c3CC3C(=O)N(C4CC4)C(=S)N32)cc1 (stereo not shown) [Compound 17]
–	< 6.00	COc1ccc(C2c3[nH]c4ccc(Br)cc4c3CC3C(=O)N(C4CCCCC4)C(=S)N32)cc1 (stereo not shown) [Compound 187]
6.00 to 6.70	–	Cc1ccc(N2C(=O)C3Cc4c([nH]c5ccccc45)C(c4cccc(Cl)c4)N3C2=S)cc1 (stereo not shown) [Compound 34]
6.00 to 6.70	–	CC(C)N1C(=O)C2Cc3c([nH]c4ccc(Br)cc34)C(c3ccc(-c4ccncc4)cc3)N2C1=O (stereo not shown) [Compound 120]
6.70 to 7.40	–	CC(C)N1C(=O)C2Cc3c([nH]c4ccc(Cl)cc34)C(c3ccc(-c4cncnc4)cc3)N2C1=S (stereo not shown) [Compound 135]
6.70 to 7.40	–	CC(C)N1C(=O)C2Cc3c([nH]c4ccc(Br)cc34)C(c3ccc(-c4ccncc4)cc3)N2C1=S (stereo not shown) [Compound 130]
> 8.10	–	O=C1C2Cc3c([nH]c4ccc(Cl)cc34)C(c3ccc4c(c3)OCO4)N2C(=S)N1C1CCCCC1 (stereo not shown) [Compound 25]
> 8.10	–	COc1ccc(C2c3[nH]c4ccc(Br)cc4c3CC3C(=O)N(CCc4ccccc4)C(=S)N32)cc1 (stereo not shown) [Compound 181]
> 8.10	–	CC(C)NCCCOc1ccc(C2c3[nH]c4ccc(Br)cc4c3CC3C(=O)N(C(C)C)C(=S)N32)cc1 (stereo not shown) [Compound 155]
< 6.00	–	O=C1C2Cc3c([nH]c4ccccc34)C(c3cccc(Cl)c3)N2C(=S)N1CCc1ccccc1 (stereo not shown) [Compound 38]
7.40 to 8.10	–	COc1ccc(C2c3[nH]c4ccc(Br)cc4c3CC3C(=O)N(CC4CCCO4)C(=S)N32)cc1 (stereo not shown) [Compound 143]
< 6.00	–	COc1ccccc1C1c2[nH]c3ccccc3c2CC2C(=O)N(c3cccc(F)c3)C(=S)N21 (stereo not shown) [Compound 92]
6.70 to 7.40	–	O=C1C2Cc3c([nH]c4ccc(Br)cc34)C(c3ccc(OCCN4CCOCC4)cc3)N2C(=S)N1CC1CCCO1 (stereo not shown) [Compound 106]
< 6.00	–	CN1C(=O)C2Cc3c([nH]c4ccccc34)C(c3cccc(F)c3)N2C1=S (stereo not shown) [Compound 65]
6.00 to 6.70	–	O=C1C2Cc3c([nH]c4ccccc34)C(c3ccc4c(c3)OCO4)N2C(=S)N1C1CCCC1 (stereo not shown) [Compound 14]
< 6.00	–	COc1ccccc1C1c2[nH]c3ccccc3c2CC2C(=O)N(CCc3ccccc3)C(=S)N21 (stereo not shown) [Compound 94]
6.70 to 7.40	–	CC(C)N1C(=O)C2Cc3c([nH]c4ccc(Br)cc34)C(c3ccc(OCCCN4CCSCC4)cc3)N2C1=S (stereo not shown) [Compound 157]
6.70 to 7.40	–	O=C1C2Cc3c([nH]c4ccc(Cl)cc34)C(c3ccc4c(c3)OCO4)N2C(=O)N1C1CCCCC1 (stereo not shown) [Compound 31]
